# Measurements as given in patent US20200270309A1, “MALEIMIDE GROUP-MODIFIED ANGIOGENESIS INHIBITOR HM-1 AND USE THEREOF” (NANJING ANJI BIOLOGICAL TECHNOLOGY CO., LTD, priority 2017, published 2020).
# Peptide text beside a SMILES is read from it. * marks the point of attachment. X66 = O=C1C=CC(=O)N1c1cccc(CCCCCCCC(=O)*)c1
# Tested on: xylene-induced ear swelling
# Test: Xylene-induced mouse ear swelling
# Type: in vivo
# Settings: Kunming mice, dose 2 mg/kg, injected once a day for 5 days
# Protocol: Kunming mice were taken, a normal saline group was taken as a blank control group, an aspirin group (200 mg/kg) was taken as a positive control group, and X1-X90 administration groups were taken as test groups. The mice were injected once a day for 5 consecutive days. The blank control group was given an equal volume of normal saline. One hour after the last administration, 0.05 mL of xylene was applied to both sides of the right ear of each mouse to cause inflammation, while no drug was applied to the left ear as a normal ear. Two hours later, the mice were put to death by dislocation. Two ears were cut along the auricle. Ear pieces were taken with a puncher and weighed, and the swelling degree and the swelling rate were calculated. Swelling degree=right ear piece weight-left ear piece weight, swelling rate=(swelling degree/left ear piece weight)*100%. Statistical t-test was conducted on the experimental results. *P<0.05 indicates significant difference, and **P<0.01 indicates extremely significant difference.
structure (smiles),measurement,setting,value
C[C@H](NC(=O)CNC(=O)[C@H](CCCNC(=N)N)NC(=O)CCCCCCCc1cccc(N2C(=O)C=CC2=O)c1)C(=O)N[C@@H](CC(=O)O)C(=O)N[C@@H](CCCNC(=N)N)C(=O)N[C@@H](C)C(=O)NCC(=O)NCC(=O)NCC(=O)NCC(=O)N[C@@H](CCCNC(=N)N)C(=O)NCC(=O)N[C@@H](CC(=O)O)C(=O)O [X31] (X66-RGADRAGGGGRGD-OH),Swelling degree,right minus left ear piece weight 2 h after xylene,3.16 ± 0.55 mg
same,Inhibition rate (%),xylene-induced ear swelling,16.85%
